Here are results for 105 compounds from PubChem BioAssay AID1996.

Values after ≈ are worked out from the molar mass of the structure shown.

The conditions of the data set: buffer; pH 7.4; 200.0 µM.
For `COc1ccc(OC)c(NC(=O)COC(=O)CCS(=O)(=O)c2ccc(Cl)cc2)c1`, the solubility (kinetic) was found to be 27.5 µg/mL (≈ 62.2 µM).
On to `CCOC(=O)c1c(C)n(C)c2c1cc(OC(C)=O)c1ccccc12`, for which the solubility (kinetic) is below 0.7 µg/mL.
In turn, `O=C(Nc1ccc(F)cc1)C1CC2CCC1C2` (stereo not given) gave a solubility (kinetic) of 25.3 µg/mL (≈ 108 µM).
With `Cc1ccc(NC(=S)N2CCCC2)cc1C`, the solubility (kinetic) was above 35.2 µg/mL.
Compound `COc1ccccc1C1Nc2ccccc2NC2=C1C(=O)CC(C)(C)C2` (stereo not given) showed a kinetic solubility of 51.6 µg/mL (≈ 148 µM).
Regarding `COc1cc(Br)c(CN2CCCN(C)CC2)cc1OC`, the kinetic solubility was found to be 44.2 µg/mL (≈ 129 µM).
Next, `COc1cccc(NC(=O)c2ccc3c(c2)CCN3S(C)(=O)=O)c1`: above 52 µg/mL; `COc1ccc(C(=O)Nc2cccc3c2CCCC3)cc1OC`: 1 µg/mL (≈ 3.21 µM); `S=C(Nc1ccccc1Oc1ccccc1)NC1CCCC1`: 5 µg/mL (≈ 16 µM).
Turning to `CC(C)c1ccccc1OCC(=O)N1CCCCCCC1`, the kinetic solubility was determined as 18.8 µg/mL (≈ 65 µM).
Turning to `Cc1ccc[n+](C(C)C(=O)c2ccc(Cl)cc2)c1.[Br-]` (stereo not given), the kinetic solubility turned out to be 44.9 µg/mL.
Consider `O=C(Nc1ccccc1C(F)(F)F)c1ccccc1Br`, for which the kinetic solubility is 39.8 µg/mL (≈ 116 µM).
Take `CN1c2ccccc2C(=O)/C(=C\Nc2ncccn2)S1(=O)=O`: the solubility (kinetic) was determined as 2.8 µg/mL (≈ 8.85 µM). Against the preceding compound, the solubility kinetic is about 14-fold lower.
`Cc1ncc([N+](=O)[O-])n1CCO` gave a kinetic solubility above 25.7 µg/mL.
The same measure for `Fc1ccc(NC(=S)Nc2cccc3ccccc23)cc1F`: 29.3 µg/mL (≈ 93.2 µM); for `COc1ccc(CN(C)C(=O)c2ccc3ccccc3n2)cc1F`: above 48.7 µg/mL; for `Cc1ccc(NC(=O)c2cc(C)nc3ccccc23)cc1`: 2.1 µg/mL (≈ 7.6 µM).
Compound `COc1cc(OC)c(NC(C)C(=O)N2CCCC2)cc1Cl` (stereo not given) showed a solubility (kinetic) of 45.1 µg/mL (≈ 144 µM). This solubility kinetic lies about 21-fold higher than the previous one.
As to `O=C(NC1CCN(c2ncccn2)CC1)c1c(F)cccc1F`, the solubility (kinetic) is above 47.7 µg/mL.
Compound `CC(Sc1ncccn1)C(=O)Nc1ccc2c(c1)OCCO2` (stereo not given) registered a solubility (kinetic) above 47.6 µg/mL.
For `CC1(C)Cc2cccc(OCC(=O)NCc3ccccc3F)c2O1`, the kinetic solubility is above 49.4 µg/mL.
The same measure for `O=C(/C=C/c1cccc(F)c1)c1ccc(N2CCOCC2)cc1`: 5.8 µg/mL (≈ 18.6 µM); for `CC(=O)c1ccc(NC(=S)NC(=O)/C=C/c2ccccc2)cc1`: below 0.3 µg/mL.
For `O=C(Oc1ccc(F)cc1)c1cccnc1`, the solubility (kinetic) came out at 26.7 µg/mL (≈ 123 µM).
On to `CC1CCCN(C(=O)COC(=O)Cc2c(F)cccc2Cl)C1` (stereo not given), for which the solubility (kinetic) was found to be 40.9 µg/mL (≈ 125 µM).
With `CCCCOC(=O)C1=C(C)NC(=O)NC1c1ccc(OC)cc1` (stereo not given), the kinetic solubility is 14.6 µg/mL (≈ 45.9 µM). Compared with the last compound, the solubility kinetic is about 2.8-fold lower.
The same measure for `O=C(Nc1ccncc1)Nc1ccc(Br)cc1Cl`: 1.9 µg/mL (≈ 5.82 µM).
Regarding `c1cnc(N2CCN(Cc3ccc4c(c3)OCO4)CC2)cn1`, the solubility (kinetic) came out at 44.5 µg/mL (≈ 149 µM).
Consider `O=C1C(=O)N(CC(=O)N2CCCC2)c2ccccc21`, for which the solubility (kinetic) was found to be 38.2 µg/mL (≈ 148 µM).
Compound `O=C(/C=C/c1ccc(F)cc1)OCC(=O)c1ccc[nH]1` displayed a solubility (kinetic) of 2.6 µg/mL (≈ 9.51 µM).
The same measure for `CC(C)(C)C(=O)N1CCN(c2ccnc3cc(Cl)ccc23)CC1`: 45 µg/mL (≈ 136 µM); for `CC(=O)Nc1ccc(/C=C2\CCc3ccccc3C2=O)cc1`: 1.2 µg/mL (≈ 4.12 µM); for `OCCC1CN(CC2CCCCC2)CCN1CC1CCCCC1` (stereo not given): above 48.4 µg/mL.
The same measure for `CC(C)(C)n1cnc2cc(NC(=O)c3ccccc3)ccc21`: above 44 µg/mL; for `CC(C)C(=O)Nc1ncc(Cc2ccccc2Cl)s1`: below 0.3 µg/mL; for `Cc1cc(SCC(=O)Nc2cccnc2Cl)nc2ccccc12`: below 0.2 µg/mL.
Turning to `COc1ccc(C2NC(=O)NC3=C2CCc2ccccc23)cc1` (stereo not given), the kinetic solubility came to 18.1 µg/mL (≈ 59.1 µM).
In the case of `O=C(Nc1cccc(O)c1)C1CC(c2ccc(Cl)cc2)=NO1` (stereo not given), the solubility (kinetic) was 2.3 µg/mL (≈ 7.26 µM).
Compound `O=C1ON=C(c2ccccc2)/C1=C/c1ccc(O)c(O)c1` came in with a solubility (kinetic) above 42.2 µg/mL.
`CCN(C(=O)CSc1nnc(-c2ccc(F)cc2)n1C)C1CCS(=O)(=O)C1` (stereo not given) displayed a kinetic solubility above 61.9 µg/mL.
Compound `COc1ccc2c(CC(=O)Nc3ccc(OC)nc3)coc2c1` returned a solubility (kinetic) of 14.8 µg/mL (≈ 47.4 µM).
`O=C(NCC1CCCO1)c1ccc(Br)s1` (stereo not given) registered a solubility (kinetic) of 42.4 µg/mL (≈ 146 µM).
`COc1cccc(-c2cc(-c3cccnc3)nc(N)c2C#N)c1` registered a solubility (kinetic) of 2.3 µg/mL (≈ 7.61 µM).
Take `O=C(NC(=S)NC1CCCC1)c1ccccc1`: the solubility (kinetic) was 16.9 µg/mL (≈ 68 µM).
`O=C(COc1ccc(F)cc1Cl)N1CCN(C(=O)c2cccs2)CC1` yielded a solubility (kinetic) above 57.4 µg/mL.
`CCC(=O)N(CCC1(C(C)C)CCOC(C)(C)C1)C(C)c1cccs1` (stereo not given) showed a solubility (kinetic) of 42.2 µg/mL (≈ 115 µM).
Next, `O=C1NC(=Nc2ccccc2)SC1Cc1ccccc1` (stereo not given): 4.6 µg/mL (≈ 16.3 µM); `O=C(O)c1ccccc1NCc1ccsc1`: above 35 µg/mL; `C#CCN(CC=C)C(=O)c1ccc2nc(C3CCCCC3)oc2c1`: 43.5 µg/mL (≈ 135 µM).
As for `O=C(NCc1ccc(F)cc1)c1cc(C(=O)C2CC2)c[nH]1`, the solubility (kinetic) is 4.2 µg/mL (≈ 14.7 µM). This solubility kinetic lies about 10-fold lower than the previous one.
Compound `CN(Cc1c(F)cccc1Cl)C(=O)C1=CC=CN2CCS(=O)(=O)N=C12` yielded a solubility (kinetic) above 57.6 µg/mL.
`Cc1cccc(N2C(=O)CC(SC(N)=Nc3ccccc3)C2=O)c1` (stereo not given): the kinetic solubility was determined as 3 µg/mL (≈ 8.84 µM).
`Nc1cc(N)nc(SCC(=O)Nc2ccccc2N2CCOCC2)n1` had a kinetic solubility of 49.6 µg/mL (≈ 138 µM).
In turn, `Cc1ccc(OCCc2csc(N)n2)cc1` showed a kinetic solubility of 34.8 µg/mL (≈ 149 µM).
As to `COc1ccc(OC)c(NC(=O)CC2(CC(=O)O)CCCC2)c1`, the kinetic solubility was above 48.2 µg/mL.
`COC(=O)c1cc(S(=O)(=O)Nc2ccc(C)cn2)c[nH]1` yielded a kinetic solubility of 43.9 µg/mL (≈ 149 µM).
Consider `COC(=O)c1ccc(C(=S)N2CCCCC2)cc1`, for which the solubility (kinetic) was above 39.5 µg/mL.
In turn, `CCCOc1ccc(-c2nc(N3CCN(C)CC3)c3ccccc3n2)cc1` showed a solubility (kinetic) of 14.5 µg/mL (≈ 40 µM).
`O=C(c1cccnc1)N1c2ccccc2Sc2ccccc21` gave a kinetic solubility of 43.1 µg/mL (≈ 142 µM).
Compound `O=C1NC(=O)C(c2ccccc2)(c2ccc(O)cc2)N1` (stereo not given) displayed a kinetic solubility above 40.2 µg/mL.
The compound `Cc1cc(OCc2nc3ccccc3s2)ccc1N` came in with a kinetic solubility of 30.6 µg/mL (≈ 113 µM).
In the case of `CC(C)C(=O)Nc1ccc(-c2nc3ncccc3o2)cc1`, the solubility (kinetic) stood at 22.2 µg/mL (≈ 78.9 µM).
On to `N#Cc1sc(NCc2ccccn2)nc1Cl`, for which the kinetic solubility is above 37.6 µg/mL.
For the compound `Cc1cc(C)nc(Nc2ccc(O)cc2)n1`, the kinetic solubility is above 32.3 µg/mL.
`COC(=O)c1ccc(NC(=O)C(=O)c2c[nH]c3ccccc23)cc1`: the solubility (kinetic) was below 0.3 µg/mL.
The same measure for `O=C(/C=C/c1c(Cl)cccc1Cl)N1CCOCC1`: above 42.9 µg/mL.
The compound `CN(Cc1ccccc1)C(=O)COc1ccccc1Cl` yielded a solubility (kinetic) of 40 µg/mL (≈ 138 µM).
For `CCCCNC(=O)C1CCN(S(=O)(=O)N2CCOCC2)CC1`, the kinetic solubility is above 50 µg/mL.
In turn, `Cc1cc(=O)n(CC(=O)O)c2ccccc12` displayed a solubility (kinetic) above 32.6 µg/mL.
In turn, `CC(=O)Nc1ccc(S(=O)(=O)N(C)c2ccc(OCCOc3cccc(C)c3)cc2)cc1` yielded a kinetic solubility of 5 µg/mL (≈ 11 µM).
Regarding `Cc1ccc(C(=O)Nc2ccc3c(c2)OCCO3)cc1S(=O)(=O)N1CCOCC1`, the kinetic solubility came out at 41.6 µg/mL (≈ 99.4 µM). Against the preceding compound, the solubility kinetic is about 8.3-fold higher.
For the compound `OC(CN1CCOCC1)(c1ccccc1)c1ccccn1` (stereo not given), the kinetic solubility is above 42.7 µg/mL.
In the case of `O=C(CNC(=O)OCc1ccccc1)Nc1ccc(F)cc1`, the kinetic solubility was 10.3 µg/mL (≈ 34.1 µM).
For `CCN(CC(=O)NCc1ccncc1)S(=O)(=O)c1ccccc1`, the solubility (kinetic) is above 50 µg/mL.
`Cn1c(-c2ccc(F)cc2)cnc1NCc1ccc(F)cc1F` showed a solubility (kinetic) of 34.9 µg/mL (≈ 110 µM).
The same measure for `Cc1ccc(C(=O)NCCNC(=O)COc2ccccc2Cl)cn1`: above 52.2 µg/mL; for `N#CCSc1ccc(S(=O)(=O)N2CCOCC2)cn1`: above 44.9 µg/mL.
As to `O=C(N1CCOCC1)N1CCN(S(=O)(=O)c2ccc(Cl)cc2)C1`, the solubility (kinetic) is 44.5 µg/mL (≈ 124 µM).
`O=C(Cc1ccccc1)c1c[nH]c(C(=O)NCc2ccncc2)c1` had a kinetic solubility of 6.1 µg/mL (≈ 19.1 µM).
In turn, `N#Cc1c2c(c(NCCOCCO)n3c1nc1ccccc13)CCCC2` gave a solubility (kinetic) of 27 µg/mL (≈ 77 µM).
Take `Cc1cc(C)c2c(CN3CC(C)OC(C)C3)cc(=O)oc2c1C` (stereo not given): the solubility (kinetic) came to 13.6 µg/mL (≈ 43.1 µM). This solubility kinetic lies about 2-fold lower than the previous one.
Compound `COc1ccccc1/C=C/C(=O)Nc1ccc(N2CCOCC2)cc1` showed a solubility (kinetic) of 1 µg/mL (≈ 2.96 µM).
`CSCCC(NC(=O)c1ccccc1)C(=O)OCC(=O)NCc1ccco1` (stereo not given) came in with a solubility (kinetic) above 58.6 µg/mL.
The compound `Cc1ccc(C(=O)OCC(=O)N(C)c2ccccc2)c(C)c1` gave a kinetic solubility above 44.6 µg/mL.
`CC1CCCN(C(=O)CCNC(=O)c2ccccc2Cl)C1` (stereo not given) yielded a kinetic solubility above 46.3 µg/mL.
The same measure for `CC(=O)Nc1ccc(N=Cc2c(O)ccc3ccccc23)cc1`: 7.6 µg/mL (≈ 25 µM); for `O=C(NCC1CCCCC1)c1ccc(F)cc1Cl`: 20.4 µg/mL (≈ 75.6 µM); for `O=C(COc1ccccc1Cl)NCCCNC(=O)c1ccncc1`: 44.7 µg/mL (≈ 129 µM).
The same measure for `Cc1ccccc1-c1noc(-c2ccccc2C(=O)O)n1`: above 42 µg/mL.
As to `COc1ccc(CC(=O)Nc2ccc3nc(SC)sc3c2)cc1OC`, the solubility (kinetic) was found to be 34.3 µg/mL (≈ 91.6 µM).
`COc1ccc(-n2c(C)ccc2-c2ccccc2)cn1` displayed a solubility (kinetic) of 5.9 µg/mL (≈ 22.3 µM). Compared with the last compound, the solubility kinetic is about 5.8-fold lower.
In turn, `CC(=O)c1ccc(NC(=O)c2cccc(NC(=O)c3ccccc3)c2)cc1` returned a kinetic solubility of 0.7 µg/mL (≈ 1.95 µM).
`Cc1noc(C)c1S(=O)(=O)NCc1cccc(Cl)c1` registered a kinetic solubility above 45.1 µg/mL.
In turn, `Cc1ccc(NCc2nc3ccccc3n2C)c(C)c1` had a kinetic solubility of 32.1 µg/mL (≈ 121 µM).
For `CSCCC(NC(=O)c1ccccc1Cl)C(=O)NCCc1ccccn1` (stereo not given), the solubility (kinetic) was above 58.8 µg/mL.
Regarding `CNC(=O)CSc1nc2ccccc2c(=O)n1CCc1ccccc1`, the kinetic solubility is below 0.3 µg/mL.
In the case of `CCOc1ccccc1NC(=S)NCc1ccccc1`, the kinetic solubility is 38.8 µg/mL (≈ 135 µM).
Next, `O=C1C(Cc2c[nH]c3ccccc23)NC(=S)N1C1CCCCC1` (stereo not given): 49 µg/mL (≈ 150 µM); `COc1ccc(CCNC(=O)COC(=O)c2cccn2C)cc1`: above 47.5 µg/mL.
For `Cc1ccc2oc(=O)n(Cc3ccc(OC(C)C)cc3)c2c1`, the kinetic solubility was found to be 1 µg/mL (≈ 3.36 µM).
On to `Cc1ccc(S(C)(=O)=NC(=O)c2cc(C)on2)cc1` (stereo not given), for which the kinetic solubility is 41.5 µg/mL (≈ 149 µM).
`CC(C)[C@H](NS(=O)(=O)c1ccccc1)C(=O)OCC(=O)NC(=O)NC1CCCCC1` displayed a kinetic solubility above 65.9 µg/mL.
The compound `Cc1ccc(S(=O)(=O)N2CCC(C(=O)NCC3CCCCC3)CC2)cc1` had a solubility (kinetic) of 1.6 µg/mL (≈ 4.23 µM).
The same measure for `Nc1ccc(C(=O)OCc2ccncc2)cc1[N+](=O)[O-]`: 14 µg/mL (≈ 51.2 µM); for `Cc1cccc(NC(=O)COC(=O)CN2CCCCCC2=O)c1C`: above 49.9 µg/mL.
